PubChem BioAssay AID256 (DTP/NCI, 2004)
Values joined by “and” are separate entries in the source; they are usually repeats but may differ in a detail not shown here. Equal entries are not always repeated. Toxic doses and inconclusive results are not listed. Rule for the calls: active = survival T/C of 150% or more; inactive = T/C below 125% in these data.

Tested on: CD2F1 mice, L1210 leukemia ip, survival T/C
Assay: NCI In Vivo Anticancer Drug Screen. Data for tumor model L1210 Leukemia (intraperitoneal) in CD2F1 (CDF1) mice
Conditions: higher = longer survival
Summary of the method: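 Transplantable tumor in mice; compound-treated vs vehicle-treated groups. Read-out = treated/control ratio of the measured endpoint.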

[1] = endpoint: mean survival time, dose: 100.0 mg/kg/injection, schedule: Q01DX009 (ip), vehicle: saline with Tween-80
[2] = endpoint: mean survival time, dose: 200.0 mg/kg/injection, schedule: Q01DX009 (ip), vehicle: saline with Tween-80
[3] = endpoint: mean survival time, dose: 400.0 mg/kg/injection, schedule: Q01DX009 (ip), vehicle: saline with Tween-80
[4] = endpoint: mean survival time, dose: 100.0 mg/kg/injection, schedule: Q01DX001 (ip), vehicle: saline with Tween-80
[5] = endpoint: mean survival time, dose: 200.0 mg/kg/injection, schedule: Q01DX001 (ip), vehicle: saline with Tween-80
[6] = endpoint: mean survival time, dose: 400.0 mg/kg/injection, schedule: Q01DX001 (ip), vehicle: saline with Tween-80
[7] = endpoint: mean survival time, dose: 100.0 mg/kg/injection, schedule: Q04DX003 (ip), vehicle: saline with Tween-80
[8] = endpoint: mean survival time, dose: 200.0 mg/kg/injection, schedule: Q04DX003 (ip), vehicle: saline with Tween-80
[9] = endpoint: mean survival time, dose: 400.0 mg/kg/injection, schedule: Q04DX003 (ip), vehicle: saline with Tween-80

Measured: T/C

Nc1nc(=S)n(C2OCC(O)C(O)C2O)c2ccccc12 (centres undefined)
inactive: endpoint: mean survival time, dose: 12.5 mg/kg/injection, schedule: Q01DX005 (ip), vehicle: distilled water + Tween-80 97 % of control | endpoint: mean survival time, dose: 25.0 mg/kg/injection, schedule: Q01DX005 (ip), vehicle: distilled water + Tween-80 96 % of control | endpoint: mean survival time, dose: 50.0 mg/kg/injection, schedule: Q01DX005 (ip), vehicle: distilled water + Tween-80 96 % of control | endpoint: mean survival time, dose: 100.0 mg/kg/injection, schedule: Q01DX005 (ip), vehicle: distilled water + Tween-80 96 % of control | endpoint: mean survival time, dose: 200.0 mg/kg/injection, schedule: Q01DX005 (ip), vehicle: distilled water + Tween-80 91 % of control

CC(=O)c1ccc(NCN2C(=O)c3ccccc3C2=O)cc1
inactive: [1] 96 % of control | [2] 98 % of control | [3] 98 % of control

OC1(c2ccccc2)c2cc(-c3ccccc3)c(-c3ccccc3)cc2C(c2ccccc2)(c2ccccc2)C1(O)c1ccccc1 (centres undefined)
inactive: endpoint: mean survival time, dose: 50.0 mg/kg/injection, schedule: Q01DX001 (ip), vehicle: saline with Tween-80 96 % of control | [4] 96 % of control | [5] 96 % of control

O=C(O)[C@H](Cc1ccccc1)N1C(=O)c2ccccc2C1=O
inactive: endpoint: median survival time, dose: 75.0 mg/kg/injection, schedule: Q01DX005 (ip), vehicle: DMSO 96 % of control | endpoint: median survival time, dose: 150.0 mg/kg/injection, schedule: Q01DX005 (ip), vehicle: DMSO 93 % of control | endpoint: median survival time, dose: 300.0 mg/kg/injection, schedule: Q01DX005 (ip), vehicle: DMSO 96 % of control | endpoint: median survival time, dose: 600.0 mg/kg/injection, schedule: Q01DX005 (ip), vehicle: DMSO 98 % of control

O.O=P(O)(O)O.[NH-]C1CCCCC1[NH-].[Pt+2] (centres undefined)
inactive: endpoint: mean survival time, dose: 50.0 mg/kg/injection, schedule: Q04DX003 (ip), vehicle: water 120 % of control

[N-]=[N+]=NC(=O)c1cnc(OCc2ccccc2)nc1N
inactive: [4] 91 % of control | [1] 93 % of control | [5] 96 % of control | [2] 96 % of control | [6] 94 % of control | [3] 93 % of control

Cc1cc(C)c(C(=O)c2ccccc2-c2ccccc2C(=O)c2c(C)cc(C)cc2C)c(C)c1
inactive: [1] 86 % of control | [7] 96 % of control | [2] 89 % of control | [8] 100 % of control | [3] 91 % of control | [9] 96 % of control

COc1ccc(/C=C/c2ccccc2)cc1
inactive: [4] 95 % of control | [5] 88 % of control | [6] 86 % of control

O=C1C(c2ccccc2)=C(c2ccccc2)C2=CC(c3ccccc3)=C(c3ccccc3)C(c3ccccc3)C12Br (centres undefined)
inactive: [7] 90 % of control | [8] 90 % of control | [9] 89 % of control

O=c1ccn(C2OC(CO)C(O)C2O)c(=O)[n]1[Hg][c]1ccccc1 (centres undefined)
inactive: endpoint: median survival time, dose: 0.79 mg/kg/injection, schedule: Q01DX005 (ip), vehicle: saline 116 % of control and 111 % of control | endpoint: median survival time, dose: 1.56 mg/kg/injection, schedule: Q01DX005 (ip), vehicle: saline 100 % of control | endpoint: median survival time, dose: 3.12 mg/kg/injection, schedule: Q01DX005 (ip), vehicle: saline 100 % of control and 101 % of control and 103 % of control | endpoint: median survival time, dose: 6.25 mg/kg/injection, schedule: Q01DX005 (ip), vehicle: saline 100 % of control and 101 % of control and 107 % of control | endpoint: median survival time, dose: 12.5 mg/kg/injection, schedule: Q01DX005 (ip), vehicle: saline 101 % of control

C[As](C)[Se]CC1OC(O)C(O)C(O)C1O (centres undefined)
inactive: endpoint: mean survival time, dose: 12.5 mg/kg/injection, schedule: Q04DX003 (ip), vehicle: saline with Tween-80 97 % of control | endpoint: mean survival time, dose: 25.0 mg/kg/injection, schedule: Q04DX003 (ip), vehicle: saline with Tween-80 101 % of control | endpoint: mean survival time, dose: 50.0 mg/kg/injection, schedule: Q04DX003 (ip), vehicle: saline with Tween-80 98 % of control

NC(=S)N/N=C/c1ccc(Br)cn1
inactive: endpoint: mean survival time, dose: 12.5 mg/kg/injection, schedule: Q04DX002 (ip), vehicle: saline with Tween-80 110 % of control | endpoint: mean survival time, dose: 25.0 mg/kg/injection, schedule: Q04DX002 (ip), vehicle: saline with Tween-80 110 % of control
